# How the values were obtained:
# Assay type in all cases: in vivo
# [1] = test system: apple tree (Tsugaru); assay: preventing sunburn, spray on apple tree
# Protocol: The effects of a quality improver in preventing sunburn were evaluated using an apple tree (Tsugaru).
# (§1) That is, the quality improver of Example 1 was sprayed on the apple tree at the polyvalent metal concentrations shown in Table 12 over three times from early July (two-week interval). Each treatment was conducted on each branch by spraying with a backpack sprayer.
# The evaluation was carried out on 50 randomly selected fruits. The incidence of sunburn was expressed as a ratio of the number of fruits with sunburn to the total number of fruits examined. The level of sunburn was expressed on a 4-point scale (none=0, mild=1, moderate=2, severe=3) based on a ratio of the sunburn area to the total surface area of the fruit. The fruit with a sunburn level of 2 or 3 was considered as a seriously damaged fruit. The dirt on a fruit surface was evaluated by a ratio of the surface area soiled whitish to the total surface area of the fruit on a scale of 1 to 5 (not soiled=1, slightly soiled=2, a little soiled=3, moderately soiled=4, much soiled=5). The phytotoxicity was evaluated on a scale of 1 to 5 (normal=1, slightly damaged=2, a little damaged=3, moderately damaged=4, much damaged=5).
# The examinations were carried out in the same manner as in Application Example 84 except that the quality improvers of Examples 2 to 4, 6 to 7, 12, 14, 17 to 18, and Comparative Examples 1 to 4 were used instead of the quality improver of Example 1.
# [2] = test system: cherry fruit tree (Satonishiki); assay: reducing fruit-cracking and improving fruit quality, spray on cherry fruit tree
# Protocol: as §1, with “The effects of a quality improver in reducing fruit-cracking and improving fruit quality were evaluated using a cherry fruit tree (Satonishiki). That” for “That”, “cherry fruit” for “apple”, “10” for “12”, “May” for “July”
# The evaluation was carried out on 50 randomly selected fruits. The incidence of fruit-cracking was expressed as a ratio of the number of fruits with cracking to the total number of fruits examined. The degree of fruit coloring was expressed as the colored area of a fruit. The sugar content was determined using a sugar refractometer. The acidity was expressed as titratable malic acid content. The dirt on a fruit surface was evaluated by a ratio of the surface area soiled whitish to the total surface area of the fruit on a scale of 1 to 5 (not soiled=1, slightly soiled=2, a little soiled=3, moderately soiled=4, much soiled=5). The phytotoxicity was evaluated on a scale of 1 to 5 (normal=1, slightly damaged=2, a little damaged=3, moderately damaged=4, much damaged=5).
# (§2) The examinations were carried out in the same manner as in Application Example 64 except that the quality improvers of Examples 2 to 4, 6 to 7, 12, 14, 17 to 18, and Comparative Examples 1 to 4 were used instead of the quality improver of Example 1.
# [3] = test system: apple tree (Orin); assay: reducing bitter pit and improving fruit quality, spray on apple tree; conditions: for Incidence of bitter pit: 50 fruits, sprayed four times; for Ground color: fruit skin, 5-point scale (best=5, worst=1); for Phytotoxicity: scale of 1 to 5; for Sugar content: sugar refractometer; for Acidity: titratable malic acid content
# Protocol: as §1, with “The effects of a quality improver in reducing bitter pit and improving fruit quality were evaluated using an apple tree (Orin). That” for “That”, “4” for “12”, “four” for “three”, “June” for “July”
# The evaluation was carried out on 50 randomly selected fruits. The incidence of bitter pit was expressed as a ratio of the number of fruits with bitter pit to the total number of fruits examined. The ground color of fruit skin was determined on a 5-point scale (best=5, worst=1). The sugar content was determined using a sugar refractometer. The acidity was expressed as titratable malic acid content. The phytotoxicity was evaluated on a scale of 1 to 5 (normal=1, slightly damaged=2, a little damaged=3, moderately damaged=4, much damaged=5).
# The examinations were carried out in the same manner as in Application Example 22 except that the quality improvers of Examples 2 to 21 and Comparative Examples 1 to 4 were used instead of the quality improver of Example 1.
# [4] = test system: grape tree (Pione); assay: reducing fruit-cracking and improving fruit quality, spray on grape tree
# Protocol: as §1, with “The effects of a quality improver in reducing fruit-cracking and improving fruit quality were evaluated using a grape tree (Pione). That” for “That”, “grape” for “apple”, “8” for “12”, “four” for “three”
# The evaluation was carried out on 20 randomly selected clusters. The number of fruit-cracking was expressed as the number of grains with cracking in a cluster examined. The degree of fruit coloring was expressed using a color chart based on a scale of 0 (poorly colored) to 12 (fully colored). The sugar content was determined using a sugar refractometer. The acidity was expressed as titratable tartaric acid content. The dirt on a fruit surface was evaluated by a ratio of the surface area soiled whitish to the total surface area of the fruit on a scale of 1 to 5 (not soiled=1, slightly soiled=2, a little soiled=3, moderately soiled=4, much soiled=5). The phytotoxicity was evaluated on a scale of 1 to 5 (normal=1, slightly damaged=2, a little damaged=3, moderately damaged=4, much damaged=5).
# as §2
SMILES,Incidence of sunburn ([1]; polyvalent metal 0.030 wt. %) [%],Phytotoxicity ([1]; polyvalent metal 0.030 wt. %),Seriously damaged fruit ([1]; polyvalent metal 0.030 wt. %) [%],Incidence of sunburn ([1]; polyvalent metal 0.075 wt. %) [%],Phytotoxicity ([1]; polyvalent metal 0.075 wt. %),Seriously damaged fruit ([1]; polyvalent metal 0.075 wt. %) [%],Acidity ([2]; polyvalent metal 0.030 wt. %),Degree of fruit coloring ([2]; polyvalent metal 0.030 wt. %),Incidence of fruit-cracking ([2]; polyvalent metal 0.030 wt. %) [%],Phytotoxicity ([2]; polyvalent metal 0.030 wt. %),Sugar content ([2]; polyvalent metal 0.030 wt. %),Acidity ([2]; polyvalent metal 0.075 wt. %),Degree of fruit coloring ([2]; polyvalent metal 0.075 wt. %),Incidence of fruit-cracking ([2]; polyvalent metal 0.075 wt. %) [%],Phytotoxicity ([2]; polyvalent metal 0.075 wt. %),Sugar content ([2]; polyvalent metal 0.075 wt. %),Incidence of bitter pit ([3]; polyvalent metal 0.030 wt. %) [%],Incidence of bitter pit ([3]; polyvalent metal 0.075 wt. %) [%],Ground color ([3]; polyvalent metal 0.030 wt. %),Ground color ([3]; polyvalent metal 0.075 wt. %),further results
[Ca+2].[Cl-].[Cl-] [calcium chloride],10.0,4,8.0,12.0,4,8.0,0.64,79.2,18.2,4,19.4,0.66,78.4,18.5,4,19.2,30.0,25.0,3.7,3.9,Phytotoxicity ([3]; polyvalent metal 0.030 wt. %): 4; Phytotoxicity ([3]; polyvalent metal 0.075 wt. %): 4; Sugar content ([3]; polyvalent metal 0.030 wt. %): 14.1; Sugar content ([3]; polyvalent metal 0.075 wt. %): 14.2; Acidity ([3]; polyvalent metal 0.030 wt. %): 0.37; Acidity ([3]; polyvalent metal 0.075 wt. %): 0.35; Acidity ([4]; polyvalent metal 0.030 wt. %): 0.63; Degree of fruit coloring ([4]; polyvalent metal 0.030 wt. %): 9.2; Number of fruit-cracking ([4]; polyvalent metal 0.030 wt. %): 4.4; Phytotoxicity ([4]; polyvalent metal 0.030 wt. %): 4; Sugar content ([4]; polyvalent metal 0.030 wt. %): 18.4; Acidity ([4]; polyvalent metal 0.075 wt. %): 0.66; Degree of fruit coloring ([4]; polyvalent metal 0.075 wt. %): 9.0; Number of fruit-cracking ([4]; polyvalent metal 0.075 wt. %): 4.5; Phytotoxicity ([4]; polyvalent metal 0.075 wt. %): 4; Sugar content ([4]; polyvalent metal 0.075 wt. %): 18.6
O=C[O-].O=C[O-].[Ca+2] [calcium formate],10.0,3,6.0,10.0,3,6.0,0.63,80.5,16.1,3,19.9,0.62,80.3,15.6,3,20.2,26.0,24.0,3.8,3.8,Phytotoxicity ([3]; polyvalent metal 0.030 wt. %): 3; Phytotoxicity ([3]; polyvalent metal 0.075 wt. %): 3; Sugar content ([3]; polyvalent metal 0.030 wt. %): 14.5; Sugar content ([3]; polyvalent metal 0.075 wt. %): 14.9; Acidity ([3]; polyvalent metal 0.030 wt. %): 0.38; Acidity ([3]; polyvalent metal 0.075 wt. %): 0.30; Acidity ([4]; polyvalent metal 0.030 wt. %): 0.54; Degree of fruit coloring ([4]; polyvalent metal 0.030 wt. %): 9.7; Number of fruit-cracking ([4]; polyvalent metal 0.030 wt. %): 3.9; Phytotoxicity ([4]; polyvalent metal 0.030 wt. %): 3; Sugar content ([4]; polyvalent metal 0.030 wt. %): 18.9; Acidity ([4]; polyvalent metal 0.075 wt. %): 0.53; Degree of fruit coloring ([4]; polyvalent metal 0.075 wt. %): 9.7; Number of fruit-cracking ([4]; polyvalent metal 0.075 wt. %): 3.6; Phytotoxicity ([4]; polyvalent metal 0.075 wt. %): 3; Sugar content ([4]; polyvalent metal 0.075 wt. %): 19.3

# Reference: patent publication US8404619B2, “Particulate plant treatment composition” (Maruo Calcium Company Limited, priority 2005, dated 2013)
